The target in experiment [1] is T1, NTCP (Homo sapiens, UniProt Q14973).
T1 construct: expressed in transfected cells
T1 sequence (Q14973 1-349): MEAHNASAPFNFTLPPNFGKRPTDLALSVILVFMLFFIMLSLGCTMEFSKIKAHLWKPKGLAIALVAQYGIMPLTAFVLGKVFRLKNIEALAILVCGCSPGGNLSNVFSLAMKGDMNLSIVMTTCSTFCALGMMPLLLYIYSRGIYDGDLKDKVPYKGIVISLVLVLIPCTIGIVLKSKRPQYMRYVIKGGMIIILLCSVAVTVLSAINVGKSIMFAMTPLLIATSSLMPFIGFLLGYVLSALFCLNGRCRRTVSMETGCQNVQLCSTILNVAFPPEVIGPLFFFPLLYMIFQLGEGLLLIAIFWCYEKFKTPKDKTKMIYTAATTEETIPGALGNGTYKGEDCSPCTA
Description: [3H]TC transport (bile acid uptake) inhibition in NTCP-HEK293 cells. Type of experiment: cell-based. The protocol: (§1) The major goal of the present study was to analyze in parallel the effect of inhibitors on both, bile acid transport via NTCP and myr-preS1_2-48 lipopeptide binding to NTCP in a cell culture system. […] NTCP-HEK293 cells were seeded onto 96-well plates and were incubated with tetracycline in order to induce expression of the human NTCP protein. […] Experiments were performed with solvent alone (set to 100%) and with increasing concentrations of the indicated inhibitors. […] Half maximal inhibitory concentrations (IC50) were calculated by nonlinear regression analysis using the equation log(inhibitor) versus response (GraphPad Prism). […] Data represent means ± SD of quadruplicate determinations of representative experiments. […] In parallel, [^3H]preS1 peptide binding experiments were performed with a tritium-labelled myr-preS1_2-48 lipopeptide -HBV subgenotype D3- that was purchased from Pharmaron (120 Ci/mmol, 1 mCi/ml, Cardiff, UK). […] Experiments were stopped after 10 min by two-times washing with ice-cold PBS. For 0% uptake/binding control, the NTCP-HEK293 cells were not induced with tetracycline (-tet). […] Transport rates and [^3H]preS1 binding were determined in counts per minute (cpm). […] IC50 values were calculated from quadruplicate determinations by GraphPad Prism 6 (GraphPad, San Diego, CA, USA).

Experiment [2] deals with T1, NTCP. Kind of experiment: [3H]preS1 (myr-preS1_2-48 lipopeptide) binding inhibition in NTCP-HEK293 cells. The note with it: for IC50: NTCP-HEK293 cells; for Selectivity index: ratio of mean IC50 [3H]TC transport inhibition / IC50 [3H]preS1 binding inhibition. The protocol:
as §1

[3] abbreviates: 95% confidence interval, inhibition of 1 µM [3H]TC uptake, NTCP-HEK293 cells, 10 min, 37 °C, read-out: IC50 ([3H]TC uptake).
The mark [4] stands for this setting: IC50 ([3H]preS1 binding), 95% confidence interval, inhibition of 5 nM [3H]preS1 binding, 10 min, 37 °C.
The mark [5] stands for this setting: 95% confidence interval, inhibition of 5 nM [3H]preS1 binding, 10 min, 37 °C, read-out: IC50 ([3H]preS1 binding).
[6] abbreviates: mean IC50, 5 nM [3H]preS1, standard pH 7.4, read-out: IC50 [3H]preS1 binding inhibition.

By IC50 is commonly meant the concentration that inhibits the measured activity by half.

Several values for one entry are separate records, joined by “and”; a condition that tells them apart may be missing. Identical values can stand only once.

Regarding `C=C(C)[C@@H]1CC[C@]2(C)CC[C@]3(C)[C@H](CC[C@@H]4[C@@]5(C)CC[C@H](O)C(C)(C)[C@@H]5CC[C@]43C)[C@@H]12` [Compound 3, Lupeol], the IC50 was more than 1000 µM on NTCP [1], more than 1000 µM at NTCP [1] (setting [3]) and 26.9 to 97.9 µM at NTCP [2] (setting [4]).

`C=C(C)[C@@H]1CC[C@]2(C(=O)OC)CC[C@]3(C)[C@H](CC[C@@H]4[C@@]5(C)CC[C@H](O)C(C)(C)[C@@H]5CC[C@]43C)[C@@H]12` [Compound 5, Methyl betulinate]: the IC50 at NTCP [1] (read-out: IC50 ([3H]TC uptake)) was in the range of 47.1 to 100 µM; at NTCP [2] (setting [4]), 12.7 to 83.5 µM.

As to `C=C(C)C1CCC2(C=NO)CCC3(C)C(CCC4C5(C)CCC(O)C(C)(C)C5CCC43C)C12` (stereo not shown) [Compound 6, Betulinaldehyde oxime], the half-maximal inhibitory concentration (IC50) at NTCP [1] (setting [3]) was 360 to 759 µM; on NTCP [2] (setting [5]), 6.61 to 18.3 µM; on NTCP [2] (setting [6]), 11 µM. For the same compound, the Selectivity index on NTCP [2] stood at 48.

With `C=C(C)[C@@H]1CC[C@]2(COC(=O)CBr)CC[C@]3(C)[C@H](CC[C@@H]4[C@@]5(C)CC[C@H](O)C(C)(C)[C@@H]5CC[C@]43C)[C@@H]12` [Compound 7, 28-O-(Bromoacetyl)betulin], the half-maximal inhibitory concentration (IC50) on NTCP [1] (setting [3]) fell in the range of 63.5 to 126 µM; at NTCP [2] (setting [5]), 5.28 to 11.1 µM. The Selectivity index on NTCP [2] was 11.

On to `C=C(C)[C@@H]1CC[C@]2(COC(=O)CCC(=O)O)CC[C@]3(C)[C@H](CC[C@@H]4[C@@]5(C)CC[C@H](O)C(C)(C)[C@@H]5CC[C@]43C)[C@@H]12` [Compound 8, 28-O-Succinoylbetulin], for which the half-inhibitory concentration (IC50) on NTCP [1] (setting [3]) was 5.35 to 10.6 µM; on NTCP [1] (pH shift experiment, pH 5.5 (DMEM acidified with HCl), read-out: IC50 [3H]TC uptake inhibition at pH 5.5), 200 µM; on NTCP [1] (pH shift experiment, pH 7.4, read-out: IC50 [3H]TC uptake inhibition at pH 7.4) it was 8 µM; on NTCP [2] (setting [5]), 1.61 to 4.11 µM; on NTCP [2] (setting [6]), 2 to 3 µM. Besides, on NTCP [2] (pH lowered from 7.4 to 5.5), the “IC50 [3H]preS1 binding inhibition at pH 5.5 versus pH 7.4” value is listed as “did not change”. Besides, the Selectivity index at NTCP [2] was 3.

As for `C=C(C)[C@@H]1CC[C@]2(COC(=O)CCC(=O)O)CC[C@]3(C)[C@H](CC[C@@H]4[C@@]5(C)CC[C@H](OC(=O)CCC(=O)O)C(C)(C)[C@@H]5CC[C@]43C)[C@@H]12` [Compound 9, 3,28-Di-O-succinoylbetulin], the IC50 at NTCP [1] (setting [3]) is 3.11 to 5.02 µM; at NTCP [2] (setting [5]) it was 2.94 to 10.1 µM; on NTCP [2] (setting [6]) it was less than 10 µM. For the same compound, on NTCP [2], the Selectivity index is given as 1.

In the case of `C=C(C)[C@@H]1CC[C@]2(COC(=O)CC(C)(C)CC(=O)O)CC[C@]3(C)[C@H](CC[C@@H]4[C@@]5(C)CC[C@H](O)C(C)(C)[C@@H]5CC[C@]43C)[C@@H]12` [Compound 10, 28-O-(3,3-Dimethylglutaroyl)betulin], the half-inhibitory concentration (IC50) on NTCP [1] (setting [3]) was 3 to 5.91 µM; on NTCP [2] (setting [5]), 2.48 to 7.02 µM; at NTCP [2] (setting [6]), less than 10 µM. In addition, the Selectivity index on NTCP [2] worked out at 1.

For `C=C(C)[C@@H]1CC[C@]2(C(=O)O)CC[C@]3(C)[C@H](CC[C@@H]4[C@@]5(C)CC[C@H](OC(=O)CC(C)(C)CC(=O)O)C(C)(C)[C@@H]5CC[C@]43C)[C@@H]12` [Compound 11, 3-O-(3,3-Dimethylglutaroyl)betulinic acid], the IC50 was 3.08 to 4.53 µM on NTCP [1] (setting [3]) and 3 to 5.21 µM at NTCP [2] (setting [5]). Further, the Selectivity index at NTCP [2] is listed as 1.

`C=C(C)[C@@H]1CC[C@]2(COC(=O)CC(C)(C)CC(=O)O)CC[C@]3(C)[C@H](CC[C@@H]4[C@@]5(C)CC[C@H](OC(=O)CC(C)(C)CC(=O)O)C(C)(C)[C@@H]5CC[C@]43C)[C@@H]12` [Compound 12, 3,28-Di-O-(3,3-dimethylglutaroyl)betulin]: the IC50 at NTCP [1] (setting [3]) was 4.17 to 10.7 µM; at NTCP [2] (setting [5]), 4.97 to 10.1 µM. At NTCP [2], the Selectivity index came to 1.

With `C=C(C)[C@@H]1CC[C@]2(COC3CCCCO3)CC[C@]3(C)[C@H](CC[C@@H]4[C@@]5(C)CC[C@H](O)C(C)(C)[C@@H]5CC[C@]43C)[C@@H]12` (stereo partly shown) [Compound 13, 28-(Tetrahydro-2H-pyran-2-yl)betulin], the IC50 on NTCP [1] (setting [3]) lay in the range of 116 to 628 µM; at NTCP [2] (setting [5]), 9.34 to 19.5 µM; at NTCP [2] (setting [6]), 11 to 50 µM. The Selectivity index at NTCP [2] came out at 19.

`C=C(C)[C@@H]1CC[C@]2(COC(=O)c3cccnc3)CC[C@]3(C)[C@H](CC[C@@H]4[C@@]5(C)CC[C@H](O)C(C)(C)[C@@H]5CC[C@]43C)[C@@H]12` [Compound 14, 28-O-Nicotinoylbetulin]: the concentration for half-maximal inhibition (IC50) at NTCP [1] (setting [3]) is 185 to 532 µM; at NTCP [2] (setting [5]) it was 36.5 to 109 µM. Besides, on NTCP [2], the Selectivity index turned out to be 5.

As to `C=C(C)[C@@H]1CC[C@]2(COC(=O)/C=C/c3ccccc3)CC[C@]3(C)[C@H](CC[C@@H]4[C@@]5(C)CC[C@H](O)C(C)(C)[C@@H]5CC[C@]43C)[C@@H]12` [Compound 15, 28-O-Cinnamoylbetulin], the IC50 was in the range of 72.4 to 236 µM on NTCP [1] (setting [3]) and 10.9 to 31.8 µM on NTCP [2] (setting [5]). For the same compound, the Selectivity index at NTCP [2] was 7.

Regarding `C=C(C)[C@@H]1CC[C@]2(COC(=O)CCc3ccccc3)CC[C@]3(C)[C@H](CC[C@@H]4[C@@]5(C)CC[C@H](OC(=O)CCc6ccccc6)C(C)(C)[C@@H]5CC[C@]43C)[C@@H]12` [Compound 16, 3,28-Di-O-(dihydrocinnamoyl)betulin], the IC50 at NTCP [1] (setting [3]) lay within 176 to 1230 µM; at NTCP [2] (setting [5]), 24.8 to 229 µM. For the same compound, the Selectivity index on NTCP [2] is listed as 6.

As for `C=C(C)[C@@H]1CC[C@]2(C=O)CC[C@]3(C)[C@H](CC[C@@H]4[C@@]5(C)CCC(=O)C(C)(C)[C@@H]5CC[C@]43C)[C@@H]12` [Compound 18, Betulonaldehyde], the half-maximal inhibitory concentration (IC50) on NTCP [1] (setting [3]) is 88.5 to 175 µM.

Take `C=C(C)[C@@H]1CC[C@]2(C(=O)O)CC[C@]3(C)[C@H](CC[C@@H]4[C@@]5(C)CC[C@H](OC(C)=O)C(C)(C)[C@@H]5CC[C@]43C)[C@@H]12` [Compound 21, 3-O-Acetylbetulinic acid]: the 50% inhibitory concentration (IC50) on NTCP [1] (setting [3]) was 7.19 to 30.3 µM; on NTCP [2] (setting [5]), 1.81 to 5.31 µM; on NTCP [2] (setting [6]) it was 2 to 3 µM and < 10 µM. At NTCP [2], the Selectivity index stood at 5.

With `C=C(C)[C@@H]1CC[C@]2(CO)CC[C@]3(C)[C@H](CC[C@@H]4[C@@]5(C)CC[C@H](OC(C)=O)C(C)(C)[C@@H]5CC[C@]43C)[C@@H]12` [Compound 22, 3-O-Acetylbetulin], the IC50 was 36.5 to 152 µM at NTCP [1] (setting [3]) and 20.6 to 87.4 µM on NTCP [2] (setting [5]). Also, the Selectivity index on NTCP [2] amounted to 2.

For the compound `C=C(C)[C@@H]1CC[C@]2(COC3CCCCO3)CC[C@]3(C)[C@H](CC[C@@H]4[C@@]5(C)CC[C@H](OC(C)=O)C(C)(C)[C@@H]5CC[C@]43C)[C@@H]12` (stereo partly shown) [Compound 23, 3-O-Acetyl-28-(tetrahydro-2H-pyran-2-yl)betulin], the half-inhibitory concentration (IC50) at NTCP [1] (setting [3]) is 119 to 947 µM; on NTCP [2] (setting [5]) it was 11 to 114 µM. The Selectivity index on NTCP [2] turned out to be 10.

Consider `C=C(C)C1CCC2(COC(C)=O)CCC3(C)C(CCC4C5(C)CCC(OC(C)=O)C(C)(C)C5CCC43C)C12` (stereo not shown) [Compound 24, 3,28-Di-O-acetylbetulin], for which, at NTCP [1] (0.1–1,000 µM, NTCP-HEK293 cells), the “[3H]TC transport inhibition (in words)” value is on record as “no transport inhibition at all”. The IC50 on NTCP [1] (setting [3]) is more than 1000 µM; at NTCP [1] (mean IC50, […] µM [3H]TC, NTCP-HEK293 cells, standard pH 7.4, read-out: IC50 [3H]TC transport inhibition), more than 1000 µM; at NTCP [2] (setting [5]), 52.6 to 756 µM; on NTCP [2] (setting [6]) it was 199 µM. In addition, the Selectivity index on NTCP [2] is reported as more than 5.

As for `CC1(COc2ccc(CC3SC(=O)NC3=O)cc2)CCCCC1` (stereo not shown) [ciglitazone, reference compound], on NTCP [2] (setting [6]), the half-inhibitory concentration (IC50) was 1.3 µM.

The values above are taken from publication PMC7729925, “Selective hepatitis B and D virus entry inhibitors from the group of pentacyclic lupane-type betulin-derived triterpenoids” (Scientific Reports, 2020).
